pIC50: −log10 of the molar value. Several values for one entry are separate records, joined by “and”; a condition that tells them apart may be missing. Equal entries are not always repeated.
Target: Genome polyprotein (dengue virus type 2, UniProt P29990)
Format: functional, Thailand/16681/1984

Genome polyprotein, sequence (P29990 1346-1475 limits assumed): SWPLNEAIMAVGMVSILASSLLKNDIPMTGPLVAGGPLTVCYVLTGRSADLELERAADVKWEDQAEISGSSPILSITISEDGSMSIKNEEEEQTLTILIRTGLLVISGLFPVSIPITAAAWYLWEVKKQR
Genome polyprotein, sequence (P29990 1476-2093 limits assumed): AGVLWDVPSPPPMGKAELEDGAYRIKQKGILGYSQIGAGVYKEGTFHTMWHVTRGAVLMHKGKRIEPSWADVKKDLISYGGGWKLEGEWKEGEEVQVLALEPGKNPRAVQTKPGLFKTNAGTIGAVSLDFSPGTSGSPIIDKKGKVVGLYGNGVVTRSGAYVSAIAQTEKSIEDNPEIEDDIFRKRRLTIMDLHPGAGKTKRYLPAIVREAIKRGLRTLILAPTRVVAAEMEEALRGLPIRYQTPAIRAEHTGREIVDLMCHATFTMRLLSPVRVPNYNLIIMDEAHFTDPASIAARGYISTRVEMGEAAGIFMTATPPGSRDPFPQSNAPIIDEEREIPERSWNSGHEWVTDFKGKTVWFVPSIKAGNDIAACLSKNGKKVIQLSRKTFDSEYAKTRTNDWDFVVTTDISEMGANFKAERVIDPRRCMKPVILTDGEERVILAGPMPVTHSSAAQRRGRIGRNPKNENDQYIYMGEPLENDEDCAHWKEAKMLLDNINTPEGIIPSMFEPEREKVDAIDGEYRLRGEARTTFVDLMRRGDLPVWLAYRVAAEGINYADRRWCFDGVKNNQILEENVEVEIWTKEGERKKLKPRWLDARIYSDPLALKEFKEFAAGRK

Compound	pIC50
O=C1c2c(O)ccc([N+](=O)[O-])c2C(=O)c2c([N+](=O)[O-])ccc(O)c21	4.90 and < 4.00
O=C(C(=O)N1CCOCC1)c1c[nH]c2ccccc12	< 4.00
COc1ccc(S(=O)(=O)n2nc(OC(=O)c3cccc(-c4ccccc4Cl)c3)cc2N)cc1	< 4.00
CCCCCC(=O)N[C@H](C(=O)NCc1cccc(CN)c1)c1ccc(OCc2ccccc2)cc1	4.07
O=C(Nc1ccc2c(c1)B(O)OC2)c1cccc(OCc2c(Cl)cccc2Cl)c1	< 4.00
COc1ccc(S(=O)(=O)Nc2ccc(C(=O)Nc3nc4ccccc4s3)cc2)cc1	< 4.00
Nc1ccc(C(=O)Nc2nc3ccccc3s2)nc1	< 4.00
Cc1nnc([C@H](C)n2cc(C3CCNCC3)c(C)n2)o1	< 4.00
O=C(/C=C/c1ccc(N2CCNCC2)cc1)C(=O)N1CCOCC1	< 4.00
CNC(=O)c1cccc(CNc2cc(Cl)cc(C(=O)NC(C)(C)CO)c2)c1	< 4.00
NC(=O)c1cn(C[C@H]2CCCN2c2ccnc3ccccc23)nn1	< 4.00
Nc1ccc(/C=C/C(=O)C(=O)N2CCN(CCc3ccccc3)CC2)cc1	< 4.00
CCCC[C@H](NC(C)=O)C(=O)N[C@H](C(=O)NCc1ccc(CN)cc1)c1ccccc1	< 4.00
CCn1ccnc(N2CC[C@H](c3cccnc3)C2)c1=O	< 4.00
CCn1ccnc(N2CC[C@H](c3ccn[nH]3)C2)c1=O	< 4.00
O=C(O)c1cccc(NC(=O)c2cccc(OCc3c(Cl)cccc3Cl)c2)c1	< 4.00
CNC(=O)c1cccc(CCC(=O)Nc2cc(Cl)cc(C(=O)NC(C)(C)CO)c2)c1	< 4.00
N=C(N)NCCc1ccc(OC(=O)Nc2ccccc2)cc1	< 4.00
CCCC[C@H](NC(=O)OC(C)(C)C)C(=O)N[C@H](C(=O)NCc1ccc(C(N)=O)cc1)c1ccc(OCc2ccccc2)cc1	< 4.00
CCn1ccnc(N2CC[C@@H](C(=O)NC)C2)c1=O	< 4.00
N#Cc1cccc(NC(=O)c2cccc(OCc3c(Cl)cccc3Cl)c2)c1	< 4.00
CS(=O)(=O)Nc1ccc(C(=O)Nc2nc3ccccc3s2)cc1	< 4.00
CCn1ccnc(N2CCC(c3c[nH]c4ccccc34)CC2)c1=O	< 4.00

Compound	pIC50
COc1cc(Cc2c(-c3ccc(F)cc3)noc2C)nc(N2CCNCC2)n1	< 4.00
N=C(N)Nc1ccc(NC(=O)Oc2ccccc2)cc1	< 4.22
COc1cc(COc2cncc3ccccc23)nc(N2CCNCC2)n1	< 4.00
CCn1ccnc(N2CC[C@H](c3cccc(C#N)c3)C2)c1=O	< 4.00
CN(C)Cc1ccc(C(=O)Nc2cc(Cl)cc(C(=O)NC(C)(C)CO)c2)[nH]1	< 4.00
CCn1ccnc(N2CC[C@H](c3c[nH]c4ccccc34)C2)c1=O	< 4.00
N=C(N)Nc1ccc(OC(=O)Nc2ccccc2)cc1	< 4.00
NCc1ccc(/C=C/C(=O)C(=O)N2CCOCC2)cc1	< 4.00
CCn1ccnc(N2CC[C@H](C3CCOCC3)C2)c1=O	< 4.00
N=C(N)NCCc1ccc(NC(=O)Oc2ccccc2)cc1	< 4.00
CNC(=O)c1cc(Cl)ccc1NS(=O)(=O)c1ccc(Oc2ccccc2Cl)cc1	4.47
CCn1ccnc(N2CC[C@H](c3ccncc3)C2)c1=O	< 4.00
CC(C)(CO)NC(=O)c1cc(Cl)cc(NC(=O)c2cc(Cl)ccc2O)c1	< 4.00
CS(=O)(=O)c1ccc(N2CCNCC2)cc1NC(=O)c1cccc2ncccc12	< 4.00
CCn1ccnc(N2CC[C@@H](CO)C2)c1=O	< 4.00
CCn1ccnc(N2CC[C@@H](Cc3ccncc3)C2)c1=O	< 4.00
Cc1cc(-n2nccc2NC(=O)[C@]2(c3ccc(F)cc3)CCCNC2)ncn1	< 4.00
N=C(N)NCCc1cccc(B(O)O)c1	< 4.00
N=C(N)NCc1ccc(NC(=O)Oc2ccccc2)cc1	< 4.22
N=C(N)NCc1ccc(OC(=O)Nc2ccccc2)cc1	< 4.00
CC(C)(CO)NC(=O)c1cc(Cl)cc(NC(=O)c2ccc(O)nc2)c1	< 4.00
CCn1ccnc(N2CC[C@H](c3ccc(C#N)cc3)C2)c1=O	< 4.00
O=C(Nc1ccc(F)nc1)Oc1ccccc1	< 4.22

Reference: ChEMBL document CHEMBL5604063, “ASAP - DENV-2 NS2B-NS3 protease fluorescence dose response” (2024)
